{"source": "the METLIN SMRT retention time set (Domingo-Almenara et al. 2019)", "test": "gradient 5% acetonitrile 3 min, to 50% in 2 min, to 85% in 15 min, held 3 min, 100 µL/min", "conditions": "column: Zorbax Extend-C18 2.1 x 50 mm; eluents: water / acetonitrile, 0.1% formic acid", "method_in_brief": "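Values are retention times taken from adduct peaks that software picked and an analyst inspected. The pure standards were run as mixtures of ~100 molecules on HPLC linked to a quadrupole time-of-flight mass spectrometer, in positive and negative ionization mode. A Zorbax Extend-C18 column (2.1 × 50 mm, 1.8 μm) was used at 100 μL/min with water and acetonitrile, each including 0.1% formic acid.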"}
{"smiles": "COc1ccc(N2CCN(S(=O)(=O)c3cc(-c4cc(C(F)(F)F)on4)cs3)CC2)cc1", "values": [{"measurement": "RP-LC retention time", "value": 1190, "unit": "s"}]}
{"smiles": "COc1ccc(-c2cc(C(=O)NCC(c3ccc(C)o3)N(C)C)no2)cc1", "note": "(stereo unspecified)", "values": [{"measurement": "RP-LC retention time", "value": 684, "unit": "s"}]}
{"smiles": "CC1Cc2ccccc2N1C(=O)CCC(=O)N1CCN(c2cc(=O)n(C(C)C)c(=O)n2C(C)C)CC1", "note": "(stereo unspecified)", "values": [{"measurement": "RP-LC retention time", "value": 890, "unit": "s"}]}
{"smiles": "Cc1cc(C)c(NC(=O)C2CCCN(c3nnc(C)c4c(C)n(-c5ccccc5)nc34)C2)c(C)c1", "note": "(stereo unspecified)", "values": [{"measurement": "RP-LC retention time", "value": 769, "unit": "s"}]}
{"smiles": "COc1cccc(Cn2cc(C(=O)O)nn2)c1", "values": [{"measurement": "RP-LC retention time", "value": 635, "unit": "s"}]}
{"smiles": "COc1ccc(CNC(=O)c2cn(-c3cc(N4CCCC(C)C4)ncn3)cn2)cc1", "note": "(stereo unspecified)", "values": [{"measurement": "RP-LC retention time", "value": 974, "unit": "s"}]}
{"smiles": "O=C(Nc1nnc(SCc2nnc(-c3ccc4c(c3)OCO4)o2)s1)C1CC1", "values": [{"measurement": "RP-LC retention time", "value": 750, "unit": "s"}]}
{"smiles": "O=C(Nc1ccc(F)c(Cl)c1)NC1CCCN(c2cc(-c3ccncc3)[nH]n2)C1", "note": "(stereo unspecified)", "values": [{"measurement": "RP-LC retention time", "value": 657, "unit": "s"}]}
{"smiles": "Cc1cc(-c2nnc(-c3ccccc3)o2)c(C)n1CC(=O)Nc1ccccc1", "values": [{"measurement": "RP-LC retention time", "value": 931, "unit": "s"}]}
{"smiles": "Cc1cc2c(cc1C)N(C(=O)CCl)CC(=O)N2", "values": [{"measurement": "RP-LC retention time", "value": 745, "unit": "s"}]}
{"smiles": "O=C(Cn1cccc1-c1nnc(C2CCC2)o1)Nc1ccc(F)c(Cl)c1", "values": [{"measurement": "RP-LC retention time", "value": 965, "unit": "s"}]}
{"smiles": "COc1cccc(NC(=O)N2CCC(c3cc(N)on3)CC2)c1", "values": [{"measurement": "RP-LC retention time", "value": 653, "unit": "s"}]}
{"smiles": "COc1ccc(C2(CNC(=O)Cc3cccs3)CCOCC2)cc1", "values": [{"measurement": "RP-LC retention time", "value": 734, "unit": "s"}]}
{"smiles": "COc1ccc(NC(=O)Nc2c(-c3ccc(F)cc3)nc3ccccn23)cc1", "values": [{"measurement": "RP-LC retention time", "value": 649, "unit": "s"}]}
{"smiles": "Cc1ccccc1N1CCN(Cc2nc(-c3ccc(N4CCCC(C)C4)nc3)no2)CC1", "note": "(stereo unspecified)", "values": [{"measurement": "RP-LC retention time", "value": 1160, "unit": "s"}]}
{"smiles": "CCCn1ccc2sc(C)c(C(=O)N3CCN(c4ccc(OC)cc4)CC3)c2c1=O", "values": [{"measurement": "RP-LC retention time", "value": 762, "unit": "s"}]}
{"smiles": "O=C(NCC1(CO)CC1)c1ccc2nsnc2c1", "values": [{"measurement": "RP-LC retention time", "value": 602, "unit": "s"}]}
{"smiles": "Cc1cc(C(N)=O)c2cc(F)ccc2n1", "values": [{"measurement": "RP-LC retention time", "value": 544, "unit": "s"}]}
{"smiles": "CS(=O)(=O)N1CCN(CCNC(=O)Nc2cccc(C(F)(F)F)c2)CC1", "values": [{"measurement": "RP-LC retention time", "value": 576, "unit": "s"}]}
{"smiles": "CC(=O)Nc1ccc(S(=O)(=O)N2CCC(C(=O)N3CCN(c4ncccn4)CC3)CC2)cc1", "values": [{"measurement": "RP-LC retention time", "value": 666, "unit": "s"}]}
{"smiles": "O=C(C1CCC1)N1CCc2sc(S(=O)(=O)Nc3ccc(Cl)cc3)cc2C1", "values": [{"measurement": "RP-LC retention time", "value": 929, "unit": "s"}]}
{"smiles": "CC(C)c1ccc(NC(=O)CN2C(=O)C3CCCCN3c3ccc(S(=O)(=O)N(C)C)cc32)cc1", "note": "(stereo unspecified)", "values": [{"measurement": "RP-LC retention time", "value": 955, "unit": "s"}]}
{"smiles": "CCc1ccc(C2=C(C)C(N3CCCN(C(C)=O)CC3)=NS2(=O)=O)cc1", "values": [{"measurement": "RP-LC retention time", "value": 745, "unit": "s"}]}
{"smiles": "Cc1noc(CNS(=O)(=O)c2ccc(OC(F)(F)F)cc2)n1", "values": [{"measurement": "RP-LC retention time", "value": 818, "unit": "s"}]}
{"smiles": "CC1CCCCC1Nc1nc(-c2ccc([N+](=O)[O-])cc2)nc2ccccc12", "note": "(stereo unspecified)", "values": [{"measurement": "RP-LC retention time", "value": 950, "unit": "s"}]}
{"smiles": "Cc1ccc(-c2nnc(-c3ccccc3)o2)cc1S(=O)(=O)N1CCC(C)CC1", "values": [{"measurement": "RP-LC retention time", "value": 1210, "unit": "s"}]}
{"smiles": "COc1ccc(-c2nc3ccccn3c2NC(=O)c2ccc([N+](=O)[O-])cc2)cc1", "values": [{"measurement": "RP-LC retention time", "value": 662, "unit": "s"}]}
{"smiles": "COc1c(C(=O)N2CCN(c3ccccc3F)CC2)sc2cccc(F)c12", "values": [{"measurement": "RP-LC retention time", "value": 1100, "unit": "s"}]}
{"smiles": "CNS(=O)(=O)c1cccnc1Nc1ccc(F)c(Cl)c1", "values": [{"measurement": "RP-LC retention time", "value": 973, "unit": "s"}]}
{"smiles": "CCCN1CCN(CCCNC(=O)CCCn2c(=O)c3cccn3c3ccc(F)cc32)CC1", "values": [{"measurement": "RP-LC retention time", "value": 584, "unit": "s"}]}
{"smiles": "COc1ccc(-c2noc(CCC(=O)O)n2)cc1", "values": [{"measurement": "RP-LC retention time", "value": 693, "unit": "s"}]}
{"smiles": "O=c1n(Cc2ccccc2)nc2n1CCN(S(=O)(=O)c1ccc3c(c1)CCC3)CC2", "values": [{"measurement": "RP-LC retention time", "value": 931, "unit": "s"}]}
{"smiles": "O=S(=O)(c1cccnc1)N1CCN(Cc2nnnn2-c2ccc(F)c(F)c2)CC1", "values": [{"measurement": "RP-LC retention time", "value": 733, "unit": "s"}]}
{"smiles": "O=C(c1cc(F)ccc1F)N1CCCC2(C1)NC(=O)N(Cc1ccc(Cl)cc1)C2=O", "note": "(stereo unspecified)", "values": [{"measurement": "RP-LC retention time", "value": 844, "unit": "s"}]}
{"smiles": "CSc1cccc(NC(=O)N2CCN(Cc3nc4cccnc4n3-c3ccc(F)cc3)CC2)c1", "values": [{"measurement": "RP-LC retention time", "value": 711, "unit": "s"}]}
{"smiles": "Cc1ccc(NC(=O)Cn2c(N3CCCC3)nc(C)cc2=O)cc1", "values": [{"measurement": "RP-LC retention time", "value": 636, "unit": "s"}]}
